In brackets after ≈: the same amount, converted by molar mass. Where two headings read alike, the source gives them in different places.
Columns and labels:
[1] = system: F. oxysporum; assay: Mycelial growth rate / poison plate antifungal test; format: cell-based; conditions: Fusarium oxysporum; for inhibition at 50 µg/mL: 120 h, read-out: Inhibition (%) F. oxysporum; for EC50: read-out: EC50 (µg/mL) F. oxysporum
[2] = system: C. mandshurica; assay: as above; format: cell-based, Cytospora mandshurica; conditions: Cytospora; for inhibition at 50 µg/mL: 120 h, read-out: Inhibition (%) C. mandshurica; for EC50: read-out: EC50 (µg/mL) C. mandshurica
[3] = system: R. solani; assay: microbe, parasite or virus in culture; format: cell-based; conditions: Rhizoctonia solani, read-out: EC50 (µg/mL) R. solani
[4] = system: B. cinerea; assay: microbe, parasite or virus in culture; format: cell-based; conditions: Botrytis cinerea, read-out: EC50 (µg/mL) B. cinerea
[5] = system: P. infestans; assay: microbe, parasite or virus in culture; format: cell-based; conditions: Phytophthora infestans, read-out: EC50 (µg/mL) P. infestans
[6] = system: C. gloeosporioides; assay: microbe, parasite or virus in culture; format: cell-based; conditions: Colletotrichum gloeosporioides, read-out: EC50 (µg/mL) C. gloeosporioides
[7] = system: S. sclerotiorum; assay: microbe, parasite or virus in culture; format: cell-based; conditions: Sclerotinia sclerotiorum, read-out: EC50 (µg/mL) S. sclerotiorum
[8] = system: T. cucumeris; assay: microbe, parasite or virus in culture; format: cell-based; conditions: Thanatephorus cucumeris, read-out: EC50 (µg/mL) T. cucumeris
[9] = at 50 µg/mL, PDA, 27 ± 1 °C, 5 days

| SMILES | inhibition at 50 µg/mL [1, 9] [%] | inhibition at 50 µg/mL [2, 9] [%] | melting point [°C] | EC50 [1] [µg/mL] | EC50 [2] [µg/mL] | EC50 [3] [µg/mL] | EC50 [4] [µg/mL] | EC50 [5] [µg/mL] | EC50 [6] [µg/mL] | EC50 [7] [µg/mL] | EC50 [8] [µg/mL] | inhibition at 50 µg/mL [1] [%] | inhibition at 50 µg/mL [2] [%] |
| --- | --- | --- | --- | --- | --- | --- | --- | --- | --- | --- | --- | --- | --- |
| CS(=O)(=O)c1nnc(-c2c(F)cccc2Cl)o1 [Compound 5j, 2-(Methylsulfonyl)-5-(2-chloro-6-fluorophenyl)-1,3,4-oxadiazole] | 67.1 ± 4.8 | 64 ± 2.6 | 121 to 123 |  |  |  |  |  |  |  |  |  |  |
| Cc1ccccc1-c1nnc(S(C)(=O)=O)o1 [Compound 5h, 2-(Methylsulfonyl)-5-(2-methylphenyl)-1,3,4-oxadiazole] | 74.6 ± 8.5 | > 90 | 117 to 119 |  |  |  |  |  |  |  |  |  |  |
| CS(=O)(=O)c1nnc(-c2c(Cl)cccc2Cl)o1 [Compound 5f, 2-(Methylsulfonyl)-5-(2,6-dichlorophenyl)-1,3,4-oxadiazole] | 94 ± 4.1 | > 90 | 126 to 128 | 85.4 ± 17.9 (≈ 291 µM) | 98.2 ± 8.35 (≈ 335 µM) | 16.2 ± 9.76 (≈ 55.1 µM) | 8.03 ± 0.86 (≈ 27.4 µM) | 42.9 ± 7.38 (≈ 146 µM) | 33.1 ± 8.29 (≈ 113 µM) | 17.2 ± 4.72 (≈ 58.7 µM) | 25.2 ± 2.34 (≈ 86.1 µM) |  |  |
| CS(=O)(=O)c1nnc(-c2ccccc2F)o1 [Compound 5d, 2-(Methylsulfonyl)-5-(2-fluorophenyl)-1,3,4-oxadiazole] | 70.1 ± 4.9 | 64 ± 1.3 | 97 to 99 | 29.1 ± 7.82 (≈ 120 µM) | 79.9 ± 14.8 (≈ 330 µM) | 6.43 ± 1.34 (≈ 26.5 µM) | 5.21 ± 2.05 (≈ 21.5 µM) | 14.7 ± 3.23 (≈ 60.8 µM) | 20.2 ± 6.65 (≈ 83.5 µM) | 8.49 ± 3.51 (≈ 35 µM) | 10 ± 5.64 (≈ 41.3 µM) |  |  |
| COc1ccccc1-c1nnc(S(C)(=O)=O)o1 [Compound 5g, 2-(Methylsulfonyl)-5-(2-methoxyphenyl)-1,3,4-oxadiazole] | 89.6 ± 4.5 | > 90 | 127 to 129 |  |  |  |  |  |  |  |  |  |  |
| CS(=O)(=O)c1nnc(-c2ccncc2)o1 [Compound 5c, 2-(Methylsulfonyl)-5-(pyridin-4-yl)-1,3,4-oxadiazole] | 72.6 ± 6.4 | 78.2 ± 4.7 | 134 to 136 |  |  |  |  |  |  |  |  |  |  |
| CS(=O)(=O)c1nnc(-c2c(F)cccc2F)o1 [Compound 5e, 2-(Methylsulfonyl)-5-(2,6-difluorophenyl)-1,3,4-oxadiazole] | 98.8 ± 8 | > 90 | 131 to 132 | 65.8 ± 7.04 (≈ 253 µM) | 38.3 ± 3.21 (≈ 147 µM) | 21.2 ± 4.12 (≈ 81.6 µM) | 8.25 ± 0.85 (≈ 31.7 µM) | 59.5 ± 16.8 (≈ 229 µM) | 26.1 ± 7.32 (≈ 100 µM) | 15 ± 6.83 (≈ 57.5 µM) | 23.4 ± 4.76 (≈ 89.7 µM) |  |  |
| CS(=O)(=O)c1nnc(-c2ccc(F)c(F)c2F)o1 [Compound 5b, 2-(Methylsulfonyl)-5-(2,3,4-trifluorophenyl)-1,3,4-oxadiazole] | 97.5 ± 3.3 | 89.7 ± 3.1 | 114 to 115 |  |  |  |  |  |  |  |  |  |  |
| CS(=O)(=O)c1nnc(-c2ccccc2C(F)(F)F)o1 [Compound 5a, 2-(Methylsulfonyl)-5-(2-(trifluoromethyl)phenyl)-1,3,4-oxadiazole] | 71.1 ± 7.7 | 68.3 ± 9.3 | 102 to 104 |  |  |  |  |  |  |  |  |  |  |
| Cc1cc(O)no1 [Hymexazol, reference compound] |  |  |  | 27.9 ± 1.02 (≈ 282 µM) | 39.3 ± 2.79 (≈ 396 µM) | 38.6 ± 0.45 (≈ 390 µM) | 25.2 ± 6.12 (≈ 255 µM) | 26.5 ± 1.42 (≈ 267 µM) | 37.6 ± 3.16 (≈ 379 µM) | 7.76 ± 2.98 (≈ 78.3 µM) | 32.2 ± 5.82 (≈ 325 µM) | 58.4 ± 0.8 | 57.3 ± 0.3 |
| CS(=O)(=O)c1nnc(-c2ccccc2Br)o1 [Compound 5i, 2-(Methylsulfonyl)-5-(2-bromophenyl)-1,3,4-oxadiazole] | 77 ± 6.6 | 79.6 ± 7.1 | 134 to 135 | 29.9 ± 1.31 (≈ 98.6 µM) | 44.5 ± 3.56 (≈ 147 µM) | 20 ± 1.28 (≈ 66 µM) | 21 ± 2.01 (≈ 69.3 µM) | 49.6 ± 9.39 (≈ 164 µM) | 21.9 ± 2.93 (≈ 72.4 µM) | 14.8 ± 1.02 (≈ 48.8 µM) | 24.8 ± 4.29 (≈ 81.7 µM) |  |  |
